Patent EP0093484A2, “Antibacterial monic acid derivatives” (BEECHAM GROUP PLC, priority 1982, dated 1983)
≈ marks a conversion by molar mass, not a printed value.

Tests used:
[1] = test system: M. gallisepticum S6; assay: Anti-mycoplasmal activity, MIC in Friis broth agarose; assay type: cell-based; settings: Mycoplasmoides gallisepticum, 144 h, Friis broth solidified with 0.9% agarose, 6 days incubation at 37°C, read-out: MIC
[2] = test system: Corynebacterium pyogenes CY1; assay: Veterinary bacteria, MIC by two fold serial dilution in agar; settings: CY1, 18 h
Description: (§1) The activity of the compounds of the Examples against various organisms important in veterinary infections was determined using two fold serial dilutions in Diagnostic Sensitivity Test Agar inoculated with 10^4 organisms.

[3] = test system: Staph. aureus Oxford; assay: Human bacteria, MIC by serial dilution in nutrient agar; assay type: cell-based; settings: Staphylococcus aureus; Staph. aureus Oxford (human panel); nutrient agar with 5% chocolated horse blood; 18 hours at 37°C; read-out: MIC
[4] = test system: M. hyorhinis ATCC 25021; assay: Anti-mycoplasmal activity, MIC in Friis broth agarose; assay type: cell-based; settings: Mesomycoplasma hyorhinis, ATCC25021, 144 h, Friis broth solidified with 0.9% agarose, 6 days incubation at 37°C, read-out: MIC
[5] = test system: S. typhimurium S18; assay: Veterinary bacteria, MIC by two fold serial dilution in agar; settings: Salmonella enterica, TYPHIMURIUM, 18 h
Description: as §1

[6] = test system: Strep. faecalis I; assay: Human bacteria, MIC by serial dilution in nutrient agar; assay type: cell-based; settings: Enterococcus faecalis, nutrient agar with 5% chocolated horse blood, 18 hours at 37°C, read-out: MIC
[7] = test system: E. coli NCTC 10418; assay: as above; assay type: cell-based; settings: Escherichia coli, NCTC10418; E. coli NCTC 10418 (human panel); nutrient agar with 5% chocolated horse blood; 18 hours at 37°C; read-out: MIC
[8] = test system: Haemophilus influenzae Q1; assay: as above; assay type: cell-based; settings: nutrient agar with 5% chocolated horse blood, 18 hours at 37°C, read-out: MIC
[9] = test system: M. suipneumoniae NCTC 10110; assay: Anti-mycoplasmal activity, MIC in Friis broth agarose; assay type: cell-based; settings: Mesomycoplasma hyopneumoniae, NCTC10110, 144 h, Friis broth solidified with 0.9% agarose, 6 days incubation at 37°C, read-out: MIC
[10] = test system: Strep. uberis SPU1; assay: Veterinary bacteria, MIC by two fold serial dilution in agar; settings: Streptococcus uberis, SPU1, 18 h
Description: as §1

[11] = test system: M. suipneumoniae TAM 6N; assay: Anti-mycoplasmal activity, MIC in Friis broth agarose; assay type: cell-based; settings: Mesomycoplasma hyopneumoniae, TAM6N, 144 h, Friis broth solidified with 0.9% agarose, 6 days incubation at 37°C, read-out: MIC
[12] = test system: Neisseria catarrhalis 1502; assay: Human bacteria, MIC by serial dilution in nutrient agar; assay type: cell-based; settings: nutrient agar with 5% chocolated horse blood, 18 hours at 37°C, read-out: MIC
[13] = test system: Haemophilus influenzae Wy21; assay: as above; assay type: cell-based; settings: nutrient agar with 5% chocolated horse blood, 18 hours at 37°C, read-out: MIC
[14] = test system: Erysipelothrix rhusiopathiae NCTC 8163; assay: Veterinary bacteria, MIC by two fold serial dilution in agar; settings: Erysipelothrix rhusiopathiae, NCTC8163, 18 h
Description: as §1

[15] = test system: M. suipneumoniae ATCC 25095; assay: Anti-mycoplasmal activity, MIC in Friis broth agarose; assay type: cell-based; settings: Mesomycoplasma hyopneumoniae, ATCC25095, 144 h, Friis broth solidified with 0.9% agarose, 6 days incubation at 37°C, read-out: MIC
[16] = test system: M. dispar NCTC 10125; assay: as above; assay type: cell-based; settings: 144 h, Friis broth solidified with 0.9% agarose, 6 days incubation at 37°C, read-out: MIC
[17] = test system: M. suipneumoniae HK(2); assay: as above; assay type: cell-based; settings: Mesomycoplasma hyopneumoniae, 144 h, Friis broth solidified with 0.9% agarose, 6 days incubation at 37°C, read-out: MIC
[18] = test system: Strep. suis (group D) SPS11; assay: Veterinary bacteria, MIC by two fold serial dilution in agar; settings: Streptococcus suis, 18 h
Description: as §1

[19] = test system: M. suipneumoniae MS16; assay: Anti-mycoplasmal activity, MIC in Friis broth agarose; assay type: cell-based; settings: Mesomycoplasma hyopneumoniae, 144 h, Friis broth solidified with 0.9% agarose, 6 days incubation at 37°C, read-out: MIC
[20] = test system: Staph. aureus 152 (pen. sens.); assay: Veterinary bacteria, MIC by two fold serial dilution in agar; settings: Staphylococcus aureus, 18 h
Description: as §1

[21] = test system: Past. multocida PA2; assay: as above; settings: Pasteurella multocida, PA2, 18 h
Description: as §1

[22] = test system: Strep. dysgalactiae SPD1; assay: as above; settings: Streptococcus dysgalactiae, SPD1, 18 h
Description: as §1

[23] = test system: E. coli NCTC 10418; assay: as above; settings: Escherichia coli, NCTC10418, 18 h
Description: as §1

[24] = test system: Bacillus subtilis 6633; assay: Human bacteria, MIC by serial dilution in nutrient agar; assay type: cell-based; settings: nutrient agar with 5% chocolated horse blood, 18 hours at 37°C, read-out: MIC
[25] = test system: Staph. aureus Oxford; assay: Veterinary bacteria, MIC by two fold serial dilution in agar; settings: Staphylococcus aureus, 18 h
Description: as §1

[26] = test system: Pasteurella multocida 1633; assay: Human bacteria, MIC by serial dilution in nutrient agar; assay type: cell-based; settings: nutrient agar with 5% chocolated horse blood, 18 hours at 37°C, read-out: MIC
[27] = test system: M. suipneumoniae JF 435; assay: Anti-mycoplasmal activity, MIC in Friis broth agarose; assay type: cell-based; settings: Mesomycoplasma hyopneumoniae, JF435, 144 h, Friis broth solidified with 0.9% agarose, 6 days incubation at 37°C, read-out: MIC
[28] = test system: E. coli ESS; assay: Human bacteria, MIC by serial dilution in nutrient agar; assay type: cell-based; settings: Escherichia coli, nutrient agar with 5% chocolated horse blood, 18 hours at 37°C, read-out: MIC
[29] = test system: Strep. pneumoniae CN33; assay: as above; assay type: cell-based; settings: Streptococcus pneumoniae, nutrient agar with 5% chocolated horse blood, 18 hours at 37°C, read-out: MIC
[30] = test system: Staph. aureus Russell; assay: as above; assay type: cell-based; settings: Staphylococcus aureus, nutrient agar with 5% chocolated horse blood, 18 hours at 37°C, read-out: MIC
[31] = test system: Corynebacterium xerosis 9755; assay: as above; assay type: cell-based; settings: nutrient agar with 5% chocolated horse blood, 18 hours at 37°C, read-out: MIC
[32] = test system: Staph. aureus B4 (pen. resistant); assay: Veterinary bacteria, MIC by two fold serial dilution in agar; settings: Staphylococcus aureus, 18 h
Description: as §1

[33] = test system: Bord. bronchiseptica B08; assay: as above; settings: Bordetella bronchiseptica, B08, 18 h
Description: as §1

[34] = test system: E. coli E1; assay: as above; settings: Escherichia coli, E1, 18 h
Description: as §1

[35] = test system: Ps. aeruginosa 10662; assay: Human bacteria, MIC by serial dilution in nutrient agar; assay type: cell-based; settings: Pseudomonas aeruginosa, nutrient agar with 5% chocolated horse blood, 18 hours at 37°C, read-out: MIC
[36] = test system: Past. haemolytica PA5; assay: Veterinary bacteria, MIC by two fold serial dilution in agar; settings: Mannheimia haemolytica, PA5, 18 h
Description: as §1

[37] = test system: K. aerogenes A; assay: Human bacteria, MIC by serial dilution in nutrient agar; assay type: cell-based; settings: Klebsiella aerogenes, nutrient agar with 5% chocolated horse blood, 18 hours at 37°C, read-out: MIC
[38] = test system: M. suipneumoniae Str. 11; assay: Anti-mycoplasmal activity, MIC in Friis broth agarose; assay type: cell-based; settings: Mesomycoplasma hyopneumoniae, 144 h, Friis broth solidified with 0.9% agarose, 6 days incubation at 37°C, read-out: MIC
[39] = test system: Strep. spp. 64/848-C; assay: Human bacteria, MIC by serial dilution in nutrient agar; assay type: cell-based; settings: nutrient agar with 5% chocolated horse blood, 18 hours at 37°C, read-out: MIC

Row | SMILES | MIC [1] | MIC [2] | MIC [3] | MIC [4] | MIC [5] | MIC [6] | MIC [7] | MIC [9] | MIC [10] | MIC [11] | MIC [12] | MIC [13] | MIC [14] | MIC [15] | MIC [16] | MIC [17] | MIC [18] | MIC [19] | MIC [20] | MIC [21] | also measured
1 | CC(=CC(=O)OCc1cccc(S(C)(=O)=O)c1)CC1OCC(CC2OC2C(C)C(C)O)C(O)C1O (stereo not shown) [Example 7, m-Methylsulfonylbenzyl monate A] | 5 µg/mL (≈ 9.75 µM) | > 80 µg/mL | 2.5 µg/mL (≈ 4.88 µM) | 0.5 µg/mL (≈ 0.975 µM) | > 80 µg/mL | > 100 µg/mL | > 100 µg/mL | 1 µg/mL (≈ 1.95 µM) | 0.625 µg/mL (≈ 1.22 µM) | 1 µg/mL (≈ 1.95 µM) | 1 µg/mL (≈ 1.95 µM) | 0.5 µg/mL (≈ 0.975 µM) | > 80 µg/mL | 0.5 µg/mL (≈ 0.975 µM) | 0.25 µg/mL (≈ 0.488 µM) | 1 µg/mL (≈ 1.95 µM) | 20 µg/mL (≈ 39 µM) | 0.5 µg/mL (≈ 0.975 µM) | 2.5 µg/mL (≈ 4.88 µM) | 1.25 µg/mL (≈ 2.44 µM) | MIC [8]: 0.5 µg/mL (≈ 0.975 µM); MIC [22]: 1.25 µg/mL (≈ 2.44 µM); MIC [23]: > 80 µg/mL; MIC [24]: 2.5 µg/mL (≈ 4.88 µM); MIC [25]: 2.5 µg/mL (≈ 4.88 µM); MIC [26]: 2.5 µg/mL (≈ 4.88 µM); MIC [27]: 1 µg/mL (≈ 1.95 µM); MIC [28]: 2.5 µg/mL (≈ 4.88 µM); MIC [29]: 1 µg/mL (≈ 1.95 µM); MIC [30]: 5 µg/mL (≈ 9.75 µM); MIC [31]: > 100 µg/mL; MIC [32]: 2.5 µg/mL (≈ 4.88 µM); MIC [33]: > 80 µg/mL; MIC [34]: > 80 µg/mL; MIC [35]: > 100 µg/mL; MIC [36]: 10 µg/mL (≈ 19.5 µM); MIC [37]: > 100 µg/mL; MIC [38]: 0.5 µg/mL (≈ 0.975 µM)
2 | CC(=CC(=O)OC(C)c1ccc(S(C)(=O)=O)cc1)CC1OCC(CC2OC2C(C)C(C)O)C(O)C1O (stereo not shown) [Example 9, 1-(p-Methylsulfonylphenyl)ethyl monate A] | 10 µg/mL (≈ 19 µM) | > 80 µg/mL | 4 µg/mL (≈ 7.6 µM) | 0.5 µg/mL (≈ 0.949 µM) | > 80 µg/mL | > 128 µg/mL | > 128 µg/mL | 1 µg/mL (≈ 1.9 µM) | 0.312 µg/mL (≈ 0.592 µM) | 1 µg/mL (≈ 1.9 µM) | 2 µg/mL (≈ 3.8 µM) | 0.5 µg/mL (≈ 0.949 µM) | 80 µg/mL (≈ 152 µM) | 0.5 µg/mL (≈ 0.949 µM) | 0.05 µg/mL (≈ 0.0949 µM) | 1 µg/mL (≈ 1.9 µM) | 40 µg/mL (≈ 76 µM) | 0.5 µg/mL (≈ 0.949 µM) | 5 µg/mL (≈ 9.49 µM) | 2.5 µg/mL (≈ 4.75 µM) | MIC [22]: 0.625 µg/mL (≈ 1.19 µM); MIC [23]: > 80 µg/mL; MIC [24]: 1 µg/mL (≈ 1.9 µM); MIC [25]: 10 µg/mL (≈ 19 µM); MIC [26]: 8 µg/mL (≈ 15.2 µM); MIC [27]: 1 µg/mL (≈ 1.9 µM); MIC [28]: 4 µg/mL (≈ 7.6 µM); MIC [29]: 4 µg/mL (≈ 7.6 µM); MIC [30]: 16 µg/mL (≈ 30.4 µM); MIC [31]: > 128 µg/mL; MIC [32]: 5 µg/mL (≈ 9.49 µM); MIC [33]: > 80 µg/mL; MIC [34]: > 80 µg/mL; MIC [35]: > 128 µg/mL; MIC [36]: 40 µg/mL (≈ 76 µM); MIC [37]: > 128 µg/mL; MIC [38]: 0.5 µg/mL (≈ 0.949 µM); MIC [39]: 4 µg/mL (≈ 7.6 µM)
